In PMC11908448 (Bioorganic chemistry, 2019):
Like-named read-outs stand apart in the source and are kept apart here.

How the values were obtained:
[1] = biological target: T1, Bovine XO (Bos taurus, UniProt P80457); assay: Determination of inhibitory potency against XO activity; assay type: biochemical
[2] = biological target: T1, Bovine XO; conditions: cited from earlier work

T1 sequence (P80457 whole entry): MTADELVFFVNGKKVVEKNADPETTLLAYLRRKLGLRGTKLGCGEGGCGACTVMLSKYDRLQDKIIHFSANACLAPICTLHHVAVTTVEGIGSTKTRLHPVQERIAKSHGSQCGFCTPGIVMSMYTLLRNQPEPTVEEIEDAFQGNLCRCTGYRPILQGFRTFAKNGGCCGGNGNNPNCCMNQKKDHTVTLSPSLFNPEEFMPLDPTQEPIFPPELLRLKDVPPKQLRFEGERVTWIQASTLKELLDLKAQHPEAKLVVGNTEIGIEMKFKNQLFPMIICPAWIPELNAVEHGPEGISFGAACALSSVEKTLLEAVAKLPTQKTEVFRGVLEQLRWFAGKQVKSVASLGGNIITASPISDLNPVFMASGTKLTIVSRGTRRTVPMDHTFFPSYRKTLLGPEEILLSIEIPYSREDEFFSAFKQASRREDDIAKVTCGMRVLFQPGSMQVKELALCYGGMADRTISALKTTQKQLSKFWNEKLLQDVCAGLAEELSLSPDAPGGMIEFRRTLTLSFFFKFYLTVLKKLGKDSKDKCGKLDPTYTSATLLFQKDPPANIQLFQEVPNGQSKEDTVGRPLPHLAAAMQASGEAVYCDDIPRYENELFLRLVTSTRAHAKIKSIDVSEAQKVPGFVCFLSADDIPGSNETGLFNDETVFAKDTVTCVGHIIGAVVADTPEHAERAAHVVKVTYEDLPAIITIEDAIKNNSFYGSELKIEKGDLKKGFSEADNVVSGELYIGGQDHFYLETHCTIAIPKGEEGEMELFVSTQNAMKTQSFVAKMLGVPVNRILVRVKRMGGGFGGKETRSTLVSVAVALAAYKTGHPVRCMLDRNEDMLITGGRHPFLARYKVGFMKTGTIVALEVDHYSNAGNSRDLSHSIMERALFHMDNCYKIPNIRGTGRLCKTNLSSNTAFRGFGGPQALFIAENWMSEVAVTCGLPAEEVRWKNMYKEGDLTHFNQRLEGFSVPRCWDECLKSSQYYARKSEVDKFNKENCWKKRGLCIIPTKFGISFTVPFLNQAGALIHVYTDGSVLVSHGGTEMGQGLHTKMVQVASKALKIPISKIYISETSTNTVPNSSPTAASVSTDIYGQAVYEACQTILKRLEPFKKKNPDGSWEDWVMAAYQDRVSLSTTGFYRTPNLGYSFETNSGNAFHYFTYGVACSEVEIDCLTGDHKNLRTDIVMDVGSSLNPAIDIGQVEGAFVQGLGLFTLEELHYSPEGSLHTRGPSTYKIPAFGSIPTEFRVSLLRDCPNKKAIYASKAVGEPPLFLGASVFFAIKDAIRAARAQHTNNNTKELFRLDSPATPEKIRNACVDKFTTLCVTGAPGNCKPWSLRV

IC50 [1]	XO inhibitory potency (in words) ([1]; reported by others [41] or measured by the authors)	SMILES	mode of XO inhibition ([2]; kinetic studies)	XO inhibitory potency (in words) ([2]; literature statement)
3900 nM	–	O=C(/C=C/c1ccc(O)c(O)c1)OCCc1ccccc1 [Compound 1, (E)-phenethyl 3-(3,4-dihydroxyphenyl)acrylate]	competitive inhibitor	low micromolar range
~250 nM	–	O=C(/C=C/c1ccc(O)c(O)c1)Oc1ccccc1 [Compound 8, (E)-phenyl 3-(3,4-dihydroxyphenyl)acrylate]	–	–
–	low nanomolar or subnanomolar range	Cc1nc(-c2ccc(OCC(C)C)c(C#N)c2)sc1C(=O)O [febuxostat, Febuxostat, reference compound]	–	–
